# Publication PMC5705213, “Immunoproteasome functions explained by divergence in cleavage specificity and regulation” (eLife, 2017)
# *1 amine or outer side, *2 acyl side, *3 side chain or, on linkers, in order; H or OH if unused. Where a SMILES comes first, the peptide text is derived from it. The star is where a group is joined. ACC = NC(=O)Cc1cc(=O)oc2cc(N*)ccc12; AMC = Cc1cc(=O)oc2cc(N*)ccc12; Suc = O=C(CCC(=O)[*:2])[*:1]
# Tests used:
# [1] = biological target: T1, human immunoproteasome core particle (i20S) (Homo sapiens, UniProt P20618+P28062); assay: Purified proteasome activity assay with fluorogenic substrates, SDS-activated i20S; type: biochemical
# T1 construct: purchased Boston Biochem E-370
# Procedure: Non-prime-side substrate specificity profiling was performed with a complete, diverse library of 160,000 fluorogenic substrates containing the general structure acetyl-P4-P3-P2-P1-(7-amino-4-carbamoylmethylcourmarin, ACC) ([Harris et al., 2000]). For each sub-library, 10 nM human i20S or c20S underwent SDS pre-activation for 1 hr at room temperature in assay buffer (20 mM Tris, pH 8.0, 0.5 mM EDTA) containing 0.03% SDS. […] Activity assays were carried out over 1 hr following two-fold sample dilution in the same 0.03% SDS-containing buffer that also contained a 250 μM final concentration of PS-SCL substrate pool. Activity was recorded in black 96-well round bottom plates (Costar, COrning, NY) using a BioTek Synergy H4 Hybrid Multi-Mode Microplate Reader set to λex = 380 nm and λem = 460 nm (gain = 63). Initial velocity in relative fluorescence units per second (RFU/s) was calculated using a linear fit of the progress curves with Gen5 software v.2.03.
# Activity assays with individual fluorogenic substrates were carried out as described above for the PS-SCL assays using final concentrations of 5 nM SDS-activated i20S or c20S and 10 μM substrate except where noted below. The commercial substrates Suc-LLVY-AMC, Ac-WLA-AMC (Boston Biochem, S-330), and Ac-ANW-AMC (Boston Biochem, S-320) were used as supplied. To convert cleaved substrate RFU to free AMC or ACC dye concentration, calibration curves were prepared through total enzymatic hydrolysis of ACC- or AMC-containing peptides that had been quantified through amino acid analysis (Alphalyse, Inc.). Substrate selectivity of PA28α- and SDS-activated 20S proteasomes was compared following 1 hr pre-incubation at room temperature either in the presence of 0.03% SDS or with 12 molar equivalents of PA28α activator in the absence of SDS. For substrate selectivity assays with mixed, purified proteasomes, i20S and c20S underwent individual SDS pre-activation prior to assaying with 5 nM final concentration of pooled 20S. Proteasome ratio assays were performed with 10 μM EWFW-ACC, 30 μM iso-VQA-ACC, and 30 μM Suc-LLVY-AMC. All activity measurements were recorded on the BioTek plate reader described above using λex = 380 nm and λem = 460 nm (gain = 63) for ACC substrates and Suc-LLVY-AMC; 345 nm and λem = 445 nm (gain = 63) for Ac-WLA-AMC and Ac-ANW-AMC; and λex = 328 nm and λem = 393 nm (gain = 75) for the GEWHWPS IQ substrate. Michaelis-Menten calculations were performed using a non-linear fit in Prism v.6.0.
# LMP7 / β5 = assay: MOLT-4 lysate proteasome activity assay, IC50, LLVY-AMC substrate; type: biochemical, human; conditions: 1 hr pre-incubation, 30 μM Suc-LLVY-AMC, read-out: IC50, detection method LLVY-AMC, subunit LMP7 / β5
# Procedure: Three lysates containing varied proteasome ratios (whole blood, PBMCs, and the MOLT-4 cell line) were assayed in the absence or presence of proteasome inhibitors as described above. Lysates were generated by washing cells in PBS and lysing the resulting cell pellet in a two-fold greater volume of cold lysis buffer (20 mM Tris, pH 8.0, 5 mM EDTA). Total protein concentration was determined using the BCA Protein Assay Kit (Thermo Scientific Pierce) with bovine serum albumin (BSA) as the protein standard. […] Activity assays were carried out over 1 hr following two-fold sample dilution in the same assay buffer containing final concentrations of 10 μM NH2-EWFW-ACC, 30 μM iso-VQA-ACC, or 30 μM Suc-LLVY-AMC. Activity measurements were recorded on the BioTek plate reader described above in 384-well plates using either λex = 380 nm and λem = 460 nm (gain = 85) for the ACC substrates or λex = 345 nm and λem = 445 nm (gain = 85) for the AMC substrate.
# SUP-B15 cell line [2] = assay: Cellular proteasome inhibition and recovery assay, SUP-B15; type: cell-based, human; conditions: SUP-B15, one-hour pulse, 24 hr time course
# Procedure: (§1) SUP-B15 and MOLT-4 cells were seeded at 2 × 10^6/mL in RPMI media containing 10% FBS 24 hr prior to inhibition assays; PBMC vials were thawed and seeded at 4.4 × 10^6/mL in RPMI media with 10% FBS 3 hr prior to inhibition assays. Cells were diluted 2-fold with serum-free RPMI media containing 2X inhibitor or vehicle control (0.5% DMSO and 5% FBS final). Inhibitor treatments were carried out for 1 hr at 37°C, and to remove unbound inhibitor, cells were immediately washed three times (SUP-B15 and PBMCs) or six times (MOLT-4) with D-PBS for 1 hr time points or RPMI media containing 5% FBS for subsequent time points. Cells were incubated at 37°C for the duration of the time course and washed two times in D-PBS to remove serum upon harvest. The cell pellets were flash-frozen in liquid N2 prior to storage at −80°C.
# (§2) Cell pellets were thawed and incubated for 30 min on ice in non-denaturing lysis buffer (20 mM Tris, pH 8.0, 5 mM EDTA) or RIPA buffer that contained cOmplete^TM EDTA-free inhibitor cocktail (Roche, Pleasanton, CA). Total protein concentration in supernatants was determined using a Bradford Protein Assay Kit (Thermo Scientific Pierce) or BCA Protein Assay Kit (Cell Signaling Technology), respectively, with BSA as the protein standard. Lysate activity assays were performed following 2-fold dilution of 0.1–0.4 mg/mL lysate into assay buffer as described above. […]
# SUP-B15 cell line [3] = assay: Ubiquitin western blot after one-hour inhibitor pulse treatment; type: cell-based, human; conditions: ONX 0914 200 nM or PR-825 100 or 125 nM
# Procedure: as §1, §2
# Nrf1 = Nrf1 western blot after ONX 0914 pulse treatment; type: cell-based, human; conditions: RIPA lysates from the cell lines and PBMCs
# Procedure: as §1, §2
# primary human PBMCs = assay: Cellular proteasome inhibition and recovery assay, PBMCs; type: cell-based; conditions: primary human PBMCs from healthy donors, one-hour pulse, 24 hr
# Procedure: as §1, §2
# PSMB8 (LMP7) mRNA = assay: qRT-PCR of PSMB8 (LMP7) mRNA after ONX 0914 pulse treatment; type: cell-based, human; conditions: SUP-B15, MOLT-4 and PBMCs after one-hour pulse, normalized to GAPDH
# Procedure: as §1
# Total RNA was extracted from cells using the RNeasy Plus Mini kit (Qiagen, Germantown, MD). The quantity and quality of RNA was confirmed by absorption measurements at 260 and 280 nm. […] Efficiencies for each primer/probe set were calculated from a serial dilution of Human Reference Total RNA (Agilent) and were >95%. Relative quantification of gene expression was calculated with the comparative cycle threshold method, normalizing for GAPDH expression levels.
# [4] = test system: rheumatoid arthritis mouse model; set-up: method as in Muchamuel et al., 2009; conditions: at a significantly lower dose than bortezomib or CFZ; ref Muchamuel et al., 2009; cited from earlier work
# β5 = biological target: T2, β5 (Homo sapiens, UniProt P20618+P28074); assay: MOLT-4 lysate proteasome activity assay, IC50, iso-VQA-ACC substrate; type: biochemical; conditions: commercial β5 substrate
# T2 construct: For IC50 measurements with the MOLT-4 lysate; endogenous in cells; host or cells: MOLT-4 lysate
# Procedure: Three lysates containing varied proteasome ratios (whole blood, PBMCs, and the MOLT-4 cell line) were assayed in the absence or presence of proteasome inhibitors as described above. Lysates were generated by washing cells in PBS and lysing the resulting cell pellet in a two-fold greater volume of cold lysis buffer (20 mM Tris, pH 8.0, 5 mM EDTA). Total protein concentration was determined using the BCA Protein Assay Kit (Thermo Scientific Pierce) with bovine serum albumin (BSA) as the protein standard.
# [5] = iP over cP, Michaelis-Menten analysis
molecule,measurement,setting,value
CC(=O)N[C@@H](C)C(=O)N[C@@H](CC(N)=O)C(=O)N[C@@H](Cc1c[nH]c2ccccc12)C(=O)Nc1ccc2c(C)cc(=O)oc2c1 [Ac-ANW-AMC] (Ac-Ala-Asn-Trp-{AMC}),Ratio Vmax (i20S/c20S),[1],12
same,Ratio kcat/Km (i20S/c20S),[1],6.0
"CC(C)C[C@H](NC(=O)[C@H](CCc1ccccc1)NC(=O)CN1CCOCC1)C(=O)N[C@@H](Cc1ccccc1)C(=O)N[C@@H](CC(C)C)C(=O)[C@@]1(C)CO1 [CFZ, carfilzomib]",IC50,LMP7 / β5,0.053 µM
NC(=O)Cc1cc(=O)oc2cc(NC(=O)[C@H](Cc3c[nH]c4ccccc34)NC(=O)[C@H](Cc3ccccc3)NC(=O)[C@H](Cc3c[nH]c4ccccc34)NC(=O)[C@@H](N)CCC(=O)O)ccc12 [EWFW-ACC] (H-EWFW-{ACC}),improvement in Km for the iP,[1]; compared to the parent substrate EWHW-ACC,7 fold
same,Ratio Vmax (i20S/c20S),[1],16
same,Ratio kcat/Km (i20S/c20S),[1],4.0
same,selectivity at Vmax,[1]; [5],16 fold
NC(=O)Cc1cc(=O)oc2cc(NC(=O)[C@H](Cc3c[nH]c4ccccc34)NC(=O)[C@H](Cc3c[nH]cn3)NC(=O)[C@H](Cc3c[nH]c4ccccc34)NC(=O)[C@@H](N)CCC(=O)O)ccc12 [EWHW-ACC] (H-EWHW-{ACC}),Ratio Vmax (i20S/c20S),[1],6.0
same,Ratio kcat/Km (i20S/c20S),[1],8.4
same,iP selectivity,"[1]; iP over cP, 10 μM substrate concentration",4.5 fold
same,selectivity at Vmax,[1]; [5],6 fold
Cc1cc(=O)oc2cc(NC(=O)[C@H](Cc3ccc(O)cc3)NC(=O)[C@@H](NC(=O)[C@H](CC(C)C)NC(=O)[C@H](CC(C)C)NC(=O)CCC(=O)O)C(C)C)ccc12 [LLVY-AMC] (Suc-LLVY-{AMC}),selectivity at Vmax,"[1]; iP and cP, direction not given",2.0 fold
same,ability to distinguish iP and cP in defined mixtures of each proteasome,"[1]; mixed ratios of purified proteasomes, 30 μM substrate",unable to distinguish between the two proteasomes
COc1ccc(C[C@H](NC(=O)[C@H](C)NC(=O)CN2CCOCC2)C(=O)N[C@@H](Cc2ccccc2)C(=O)[C@]2(C)CO2)cc1 [ONX 0914],recovery of LMP7 activity after irreversible inhibition,SUP-B15 cell line [2],rapid recovery
same,IC50,LMP7 / β5,0.256 µM
same,global ubiquitinated protein level (immunoblot),SUP-B15 cell line [3],global accumulation of ubiquitinated protein
same,processed Nrf1 (p110) level (western blot),Nrf1,accumulation of processed Nrf1 (p110)
same,recovery of LMP7 activity after irreversible inhibition,primary human PBMCs,confirmed in primary human PBMCs
same,PSMB8 mRNA level,PSMB8 (LMP7) mRNA,increased PSMB8 mRNA levels
same,disease progression,[4],attenuate disease progression
Cc1cc(C(=O)N[C@H](C(=O)N[C@@H](CCC(N)=O)C(=O)N[C@@H](C)C(=O)Nc2ccc3c(CC(N)=O)cc(=O)oc3c2)C(C)C)no1 [iso-VQA-ACC],Ratio Vmax (i20S/c20S),[1],0.28
same,Ratio kcat/Km (i20S/c20S),[1],0.33
Ac-Trp-Leu-Ala-{AMC},detection of β5 activity in MOLT-4 lysate,β5,unable to specifically detect proteasome activity
